Measurements from patent publication US20100292266A1, “Oxazolyl Piperidine Modulators of Fatty Acid Amide Hydrolase” (priority 2006, published 2010).
pIC50: −log10 of the molar value.

How the values were obtained:
[1] = target: T1, FAAH (Homo sapiens, UniProt O00519); test: Assay Method 1: FAAH assay, 3H-anandamide hydrolysis in cell homogenate; assay type: biochemical; set-up: expressed in transfected cells; conditions: T84 or transfected SK-N-MC cell homogenate, 80 nM 3H-AEA, 1 h rt, > = solubility limit or highest concentration tested
T1 sequence (O00519 1-579): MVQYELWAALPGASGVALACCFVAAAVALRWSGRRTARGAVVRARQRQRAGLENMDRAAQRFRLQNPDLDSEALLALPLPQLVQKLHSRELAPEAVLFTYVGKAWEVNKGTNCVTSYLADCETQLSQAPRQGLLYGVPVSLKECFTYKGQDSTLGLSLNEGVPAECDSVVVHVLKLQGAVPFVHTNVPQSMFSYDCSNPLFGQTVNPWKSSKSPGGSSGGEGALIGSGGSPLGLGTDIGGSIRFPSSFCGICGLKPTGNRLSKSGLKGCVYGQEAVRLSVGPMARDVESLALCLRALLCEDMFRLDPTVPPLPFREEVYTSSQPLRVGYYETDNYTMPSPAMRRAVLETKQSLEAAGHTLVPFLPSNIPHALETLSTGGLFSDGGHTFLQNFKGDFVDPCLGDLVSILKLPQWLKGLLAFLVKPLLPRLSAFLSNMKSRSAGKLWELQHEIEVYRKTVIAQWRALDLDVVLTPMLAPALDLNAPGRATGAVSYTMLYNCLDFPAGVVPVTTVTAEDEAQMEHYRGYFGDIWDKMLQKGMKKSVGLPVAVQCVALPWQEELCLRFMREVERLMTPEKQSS
Method: A. Transfection of Cells with Human FAAH
(§1) A 10-cm tissue culture dish with a confluent monolayer of SK-N-MC cells was split 2 days (d) prior to transfection. Using sterile technique, the media was removed and the cells were detached from the dish by the addition of trypsin. One fifth of the cells were then placed onto a new 10-cm dish. Cells were grown in a 37° C. incubator with 5% CO2 in Minimal Essential Media Eagle with 10% Fetal Bovine Serum. After 2 d, cells were approximately 80% confluent. These cells were removed from the dish with trypsin and pelleted in a clinical centrifuge. The pellet was re-suspended in 400 μL complete media and transferred to an electroporation cuvette with a 0.4 cm gap between the electrodes. Supercoiled human FAAH cDNA (1 μg) was added to the cells and mixed. The voltage for the electroporation was set at 0.25 kV, and the capacitance was set at 960 μF. After electroporation, the cells were diluted into complete media (10 mL) and plated onto four 10-cm dishes. Because of the variability in the efficiency of electroporation, four different concentrations of cells were plated. The ratios used were 1:20, 1:10, and 1:5, with the remainder of the cells being added to the fourth dish. The cells were allowed to recover for 24 h before adding the selection media (complete media with 600 μg/mL G418). After 10 d, dishes were analyzed for surviving colonies of cells. Dishes with well-isolated colonies were used. Cells from individual colonies were isolated and tested.
(§2) The assay mixture consisted of 50 μL of the cell homogenate, 10 μL of the test compound, and 40 μL of anandamide [1-^3H-ethanolamine] (^3H-AEA, Perkin-Elmer, 10.3 Ci/mmol), which was added last, for a final tracer concentration of 80 nM. The reaction mixture was incubated at rt for 1 h. During the incubation, 96-well Multiscreen filter plates (catalog number MAFCNOB50; Millipore, Bedford, Mass., USA) were loaded with 25 μL of activated charcoal (Multiscreen column loader, catalog number MACL09625, Millipore) and washed once with 100 μL of MeOH. Also during the incubation, 96-well DYNEX MicroLite plates (catalog number NL510410) were loaded with 100 μL of MicroScint40 (catalog number 6013641, Packard Bioscience, Meriden, Conn., USA). After the 1 h incubation, 60 μL of the reaction mixture were transferred to the charcoal plates, which were then assembled on top of the DYNEX plates using Centrifuge Alignment Frames (catalog number MACF09604, Millipore). The unbound labeled ethanolamine was centrifuged through to the bottom plate (5 min at 2000 rpm), which was preloaded with the scintillant, as described above. The plates were sealed and left at rt for 1 h before counting on a Hewlett Packard TopCount.
(§3) Where activity is shown as greater than (>) a particular value, the value is the solubility limit of the compound in the assay medium or the highest concentration tested in the assay.

[2] = target: T2, Rat FAAH (Rattus norvegicus, UniProt P97612); test: Assay Method 2: FAAH assay, 3H-anandamide hydrolysis in cell homogenate; assay type: biochemical; conditions: transfected SK-N-MC cell homogenate, 80 nM 3H-AEA, 1 h rt, > = solubility limit or highest concentration tested
T2 construct: expressed in transfected cells
T2 sequence (P97612 1-579): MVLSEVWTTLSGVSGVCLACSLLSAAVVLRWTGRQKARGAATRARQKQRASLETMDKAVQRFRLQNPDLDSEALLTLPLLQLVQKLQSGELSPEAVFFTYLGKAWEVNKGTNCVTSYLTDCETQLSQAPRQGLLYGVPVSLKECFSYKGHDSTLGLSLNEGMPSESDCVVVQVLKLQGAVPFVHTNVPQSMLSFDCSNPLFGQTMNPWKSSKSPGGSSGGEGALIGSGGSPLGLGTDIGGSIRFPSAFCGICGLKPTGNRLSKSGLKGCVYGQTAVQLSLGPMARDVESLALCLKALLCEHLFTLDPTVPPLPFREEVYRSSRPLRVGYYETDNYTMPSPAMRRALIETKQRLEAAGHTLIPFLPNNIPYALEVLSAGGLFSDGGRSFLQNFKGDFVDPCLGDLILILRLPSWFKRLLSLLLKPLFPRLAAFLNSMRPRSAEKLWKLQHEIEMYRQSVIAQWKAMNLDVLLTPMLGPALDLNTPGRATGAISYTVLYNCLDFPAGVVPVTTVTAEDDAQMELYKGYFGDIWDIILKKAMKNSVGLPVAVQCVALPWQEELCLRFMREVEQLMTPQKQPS
Method: A. Transfection of Cells with Rat FAAH
as §1, with “rat” for “human”
as §2, with “incubated at […] for 1” for “incubated at rt for 1”, “labeled ethanolamine . was centrifuged” for “labeled ethanolamine was centrifuged”
as §3

Row | Structure (SMILES) | pIC50 [1] | pIC50 [2]
1 | COc1ccc(CN2CCC(C(=O)c3ncco3)CC2)cn1 [Example 81, [1-(6-Methoxy-pyridin-3-ylmethyl)-piperidin-4-yl]-oxazol-2-yl-methanone] | 6.50 | 5.77
2 | Cc1ccc(CN2CCC(C(=O)c3ncco3)CC2)cc1 [Example 64, [1-(4-Methyl-benzyl)-piperidin-4-yl]-oxazol-2-yl-methanone] | 6.95 | 6.32
3 | O=C(c1ncco1)C1CCN(Cc2cccc(F)c2)CC1 [Example 31, [1-(3-Fluoro-benzyl)-piperidin-4-yl]-oxazol-2-yl-methanone] | 6.52 | 5.85
4 | O=C(c1ncco1)C1CCN(Cc2ccccc2F)CC1 [Example 32, [1-(2-Fluoro-benzyl)-piperidin-4-yl]-oxazol-2-yl-methanone] | 5.82 | < 5.00
5 | O=C(c1ncco1)C1CCN(Cc2ccccc2)CC1 [Example 89, (1-Benzyl-piperidin-4-yl)-oxazol-2-yl-methanone] | 5.52 | 5.15
6 | COc1ccc(S(=O)(=O)N2CCC(C(=O)c3ncco3)CC2)cc1 [Example 2, [1-(4-Methoxy-benzenesulfonyl)-piperidin-4-yl]-oxazol-2-yl-methanone] | – | < 5.00
7 | COc1cccc(C(=O)N2CCC(C(=O)c3ncco3)CC2)c1 [Example 7, [1-(3-Methoxy-benzoyl)-piperidin-4-yl]-oxazol-2-yl-methanone] | – | < 5.00
8 | O=C(c1ncco1)C1CCN(Cc2ccc(OC3CCCCC3)cc2)CC1 [Example 21, [1-(4-Cyclohexyloxy-benzyl)-piperidin-4-yl]-oxazol-2-yl-methanone] | 6.12 | –
9 | CC(C)COc1ccc(CN2CCC(C(=O)c3ncco3)CC2)cc1 [Example 17, [1-(4-Isobutoxy-benzyl)-piperidin-4-yl]-oxazol-2-yl-methanone] | 6.74 | –

More lines, now with the values ahead:

Row | pIC50 [1] | pIC50 [2] | Structure (SMILES)
10 | 6.23 | 6.33 | Cc1ccc2cc(CN3CCC(C(=O)c4ncco4)CC3)c(Cl)nc2c1 [Example 69, [1-(2-Chloro-7-methyl-quinolin-3-ylmethyl)-piperidin-4-yl]-oxazol-2-yl-methanone]
11 | 7.89 | 7.64 | O=C(c1ncco1)C1CCN(Cc2ccc3ccccc3n2)CC1 [Example 84, Oxazol-2-yl-(1-quinolin-2-ylmethyl-piperidin-4-yl)-methanone]
12 | 6.70 | – | CN(C)c1ccc(CN2CCC(C(=O)c3ncco3)CC2)cc1 [Example 20, [1-(4-Dimethylamino-benzyl)-piperidin-4-yl]-oxazol-2-yl-methanone]
13 | 5.80 | 5.05 | O=C(c1ncco1)C1CCN(C(=O)CCc2ccccc2)CC1 [Example 14, 1-[4-(Oxazole-2-carbonyl)-piperidin-1-yl]-3-phenyl-propan-1-one]
14 | 5.10 | – | COc1cccc(S(=O)(=O)N2CCC(C(=O)c3ncco3)CC2)c1 [Example 3, [1-(3-Methoxy-benzenesulfonyl)-piperidin-4-yl]-oxazol-2-yl-methanone]
15 | – | < 5.00 | CC(c1ccccc1)N1CCC(C(=O)c2ncco2)CC1 (stereo not drawn) [Example 90, Oxazol-2-yl-[1-(1-phenyl-ethyl)-piperidin-4-yl]-methanone]
16 | 6.93 | – | CC(C)Oc1cccc(CN2CCC(C(=O)c3ncco3)CC2)c1 [Example 24, [1-(3-Isopropoxy-benzyl)-piperidin-4-yl]-oxazol-2-yl-methanone]
17 | – | < 5.00 | O=C(c1ncco1)C1CCN(C(=O)c2ccccc2Cl)CC1 [Example 13, [1-(2-Chloro-benzoyl)-piperidin-4-yl]-oxazol-2-yl-methanone]
18 | 5.30 | – | O=C(c1ncco1)C1CCN(S(=O)(=O)c2ccccc2Cl)CC1 [Example 6, [1-(2-Chloro-benzenesulfonyl)-piperidin-4-yl]-oxazol-2-yl-methanone]
19 | 5.05 | – | O=C(c1ncco1)C1CCN(C(=O)c2cccc(Cl)c2)CC1 [Example 12, [1-(3-Chloro-benzoyl)-piperidin-4-yl]-oxazol-2-yl-methanone]
20 | 6.11 | – | CCOc1ccc(CN2CCC(C(=O)c3ncco3)CC2)cc1 [Example 28, [1-(4-Ethoxy-benzyl)-piperidin-4-yl]-oxazol-2-yl-methanone]
21 | – | < 5.00 | O=C(c1ncco1)C1CCN(Cc2cccnc2)CC1 [Example 59, Oxazol-2-yl-(1-pyridin-3-ylmethyl-piperidin-4-yl)-methanone]
22 | – | < 5.00 | O=C(c1ncco1)C1CCN(Cc2ccncc2)CC1 [Example 58, Oxazol-2-yl-(1-pyridin-4-ylmethyl-piperidin-4-yl)-methanone]
